According to patent US20090054389A1, “Topical Composition Comprising an Antibacterial Substance” (Leo Pharma A/S, priority 2006, published 2009):

How the values were obtained:
[1] = test system: intracellular and extracellular M. leprae; conditions: cited from earlier work
[2] = In vitro skin penetration study (Franz diffusion cells, radiolabelled compositions); conditions: barrier-impaired skin; versus fusidic acid in a monoglyceride composition, or versus composition without stabilising agent

degree of retention in dermis and epidermis, comparison [2]	SMILES	potency against M. leprae [1]
	CC(=O)O[C@H]1C[C@@]2(C)[C@@H](C[C@@H](O)[C@H]3[C@@]4(C)CC[C@@H](O)[C@@H](C)[C@@H]4CC[C@@]32C)/C1=C(\CCC=C(C)C)C(=O)O [fusidic acid, Fusidic acid]	highly potent
significantly higher	CC(=O)O[C@H]1C[C@@]2(C)[C@@H](C[C@@H](O)[C@H]3[C@@]4(C)CC[C@@H](O)[C@@H](C)[C@@H]4CC[C@@]32C)/C1=C(\CCC(Br)=C(C)C)C(=O)O [11-^3H 24-bromo-fusidic acid, 24-Bromo-fusidic acid]	
